Experimental data published in US6235284A, “Synthetic polypeptides belonging to the hepatitis C virus (HCV) and which can be used especially for detecting the latter” (Bio Merieux, priority 1992, dated 2001).
Values joined by “and” are separate entries in the source; they are usually repeats but may differ in a detail not shown here. Equal entries are not always repeated.

Columns and labels:
[1] = test system: anti-HCV antibodies (HCV-positive sera); experiment: ELISA detection of anti-HCV antibodies in HCV-positive sera with adsorbed peptides; format: binding, human
Method: The reactivity of these three peptides towards the sera of individuals infected with the hepatitis C virus, termed (HCV) positive, was evaluated in an ELISA test according to the procedure described below.
(§1) Detection of anti-HCV Antibodies by ELISA
(§2) The wells of a microtiter plate of "NUNC MAXISORB™" trademark are saturated with 100 μl of a solution containing the peptide or a mixture of peptides (10 μg/ml) for 2 hours at 37° C. The plate is then emptied, then washed with a wash buffer containing 0.05% TWEEN™ 20(polysorbate 20). The wells are saturated with 100 μl of wash buffer supplemented with 10% goat serum (v/v), then incubated for 30 minutes at 37° C., then washed again as above. The sera to be analyzed are diluted to the appropriate dilution with saturation buffer. The incubation of the sera is 1 hour at 37° C. The wells are again washed. The solution of conjugate (goat IgG to human IgG labelled with peroxidase) at a dilution of 1/1000 in the saturation buffer is then added and the incubation lasts for 90 minutes at 37° C. After washing, the solution of orthophenylenediamine substrate is added. After 10 minutes, the reaction is stopped with 50 μl of H2 SO4 and the optical density is read at 492 nm. It should be noted that all the tests were carried out in duplicate.
(§3) For that, the different peptides are adsorbed on the microplates at a concentration of 10 μg/ml and the sera are used at 1/100 dilution.
(§4) The values obtained, which are collated in Table 1 below, correspond to the optical density (OD) multiplied by 10^3, at 492 nm.
(§5) For each serum the experiment was carried out in duplicate. The **** are values outside the upper scale.
The different peptides are absorbed onto microplates at a concentration of 10 μg/ml and the sera are used at the dilution stated.
The values obtained, which are collated in Table 2 below, correspond to the optical density at 492 nm. All the experiments were carried out in duplicate.
Each serum was, in a first instance, tested at the dilution 1/100.
The values given correspond to the optical density read at 492 nm multiplied by the factor 10^3.

normal sera = experiment: ELISA of peptides on normal sera (specificity); format: binding, human; settings: peptide 10 μg/ml, duplicate
Method: as §1, §2, §3, §4, §5

HCV-positive sera = settings: Nasoff et al., recombinant fusion proteins; cited from earlier work

R40R: peptide extending from arginine 74 up to arginine 115 of the HCV CORE protein (RTWAQPGYPWPLYGNEGCGWAGWLLSPRGSRPSWGPTDPRRR)
sera with which the peptide reacts ([1]; cf Table 1): about 10%
optical density at 492 nm ([1]; serum B 1, 1/100, peptide 10 μg/ml, duplicate): 172 OD × 10^3 and 173 OD × 10^3
optical density at 492 nm ([1]; serum B 2, 1/100, peptide 10 μg/ml, duplicate): 364 OD × 10^3 and 345 OD × 10^3
optical density at 492 nm ([1]; serum B 3, 1/100, peptide 10 μg/ml, duplicate): 304 OD × 10^3 and 341 OD × 10^3
optical density at 492 nm ([1]; serum B 4, 1/100, peptide 10 μg/ml, duplicate): 405 OD × 10^3 and 346 OD × 10^3
optical density at 492 nm ([1]; serum B 5, 1/100, peptide 10 μg/ml, duplicate): 360 OD × 10^3 and 281 OD × 10^3
optical density at 492 nm ([1]; serum B 6, 1/100, peptide 10 μg/ml, duplicate): 172 OD × 10^3 and 163 OD × 10^3
optical density at 492 nm ([1]; serum B 7, 1/100, peptide 10 μg/ml, duplicate): 418 OD × 10^3 and 457 OD × 10^3
optical density at 492 nm ([1]; serum B 8, 1/100, peptide 10 μg/ml, duplicate): 271 OD × 10^3 and 259 OD × 10^3
optical density at 492 nm ([1]; serum B 9, 1/100, peptide 10 μg/ml, duplicate): 235 OD × 10^3 and 229 OD × 10^3
optical density at 492 nm ([1]; serum B 10, 1/100, peptide 10 μg/ml, duplicate): 108 OD × 10^3 and 98 OD × 10^3
optical density at 492 nm ([1]; serum B 11, 1/100, peptide 10 μg/ml, duplicate): 164 OD × 10^3 and 184 OD × 10^3
optical density at 492 nm ([1]; serum B 12, 1/100, peptide 10 μg/ml, duplicate): 136 OD × 10^3 and 117 OD × 10^3
optical density at 492 nm ([1]; serum B 13, 1/100, peptide 10 μg/ml, duplicate): 140 OD × 10^3 and 99 OD × 10^3
optical density at 492 nm ([1]; serum B 14, 1/100, peptide 10 μg/ml, duplicate): 130 OD × 10^3 and 125 OD × 10^3
optical density at 492 nm ([1]; serum B 15, 1/100, peptide 10 μg/ml, duplicate): 301 OD × 10^3 and 303 OD × 10^3
optical density at 492 nm ([1]; serum B 16, 1/100, peptide 10 μg/ml, duplicate): 117 OD × 10^3 and 125 OD × 10^3
optical density at 492 nm ([1]; serum P 1, 1/100, peptide 10 μg/ml, duplicate): 375 OD × 10^3 and 420 OD × 10^3
optical density at 492 nm ([1]; serum P 2, 1/100, peptide 10 μg/ml, duplicate): 399 OD × 10^3 and 391 OD × 10^3
optical density at 492 nm ([1]; serum P 3, 1/100, peptide 10 μg/ml, duplicate): 223 OD × 10^3 and 215 OD × 10^3
optical density at 492 nm ([1]; serum P 4, 1/100, peptide 10 μg/ml, duplicate): 309 OD × 10^3 and 307 OD × 10^3
optical density at 492 nm ([1]; serum P 5, 1/100, peptide 10 μg/ml, duplicate): 129 OD × 10^3 and 176 OD × 10^3
optical density at 492 nm ([1]; serum P 6, 1/100, peptide 10 μg/ml, duplicate): 87 OD × 10^3 and 100 OD × 10^3
optical density at 492 nm ([1]; serum P 7, 1/100, peptide 10 μg/ml, duplicate): 496 OD × 10^3 and 478 OD × 10^3
optical density at 492 nm ([1]; serum P 8, 1/100, peptide 10 μg/ml, duplicate): 282 OD × 10^3 and 328 OD × 10^3
optical density at 492 nm ([1]; serum P 9, 1/100, peptide 10 μg/ml, duplicate): 159 OD × 10^3 and 158 OD × 10^3
optical density at 492 nm ([1]; serum P 10, 1/100, peptide 10 μg/ml, duplicate): 218 OD × 10^3 and 216 OD × 10^3
optical density at 492 nm ([1]; serum P 11, 1/100, peptide 10 μg/ml, duplicate): 1191 OD × 10^3 and 1377 OD × 10^3
optical density at 492 nm ([1]; serum P 12, 1/100, peptide 10 μg/ml, duplicate): 1121 OD × 10^3 and 1231 OD × 10^3
optical density at 492 nm ([1]; serum P 13, 1/100, peptide 10 μg/ml, duplicate): 113 OD × 10^3 and 116 OD × 10^3
optical density at 492 nm ([1]; serum P 14, 1/100, peptide 10 μg/ml, duplicate): 280 OD × 10^3 and 270 OD × 10^3
optical density at 492 nm ([1]; serum P 15, 1/100, peptide 10 μg/ml, duplicate): 2305 OD × 10^3 and 2335 OD × 10^3
optical density at 492 nm ([1]; serum P 16, 1/100, peptide 10 μg/ml, duplicate): 938 OD × 10^3 and 964 OD × 10^3
optical density at 492 nm ([1]; serum P 17, 1/100, peptide 10 μg/ml, duplicate): 217 OD × 10^3 and 212 OD × 10^3
optical density at 492 nm ([1]; serum P 18, 1/100, peptide 10 μg/ml, duplicate): 1427 OD × 10^3 and 1327 OD × 10^3
optical density at 492 nm ([1]; serum P 19, 1/100, peptide 10 μg/ml, duplicate): 84 OD × 10^3 and 89 OD × 10^3
optical density at 492 nm ([1]; serum P 20, 1/100, peptide 10 μg/ml, duplicate): 714 OD × 10^3 and 740 OD × 10^3
optical density at 492 nm (normal sera; normal serum SN 10, 1/100): 163 OD × 10^3 and 154 OD × 10^3
optical density at 492 nm (normal sera; normal serum SN 11, 1/100): 150 OD × 10^3 and 138 OD × 10^3
optical density at 492 nm (normal sera; normal serum SN 16, 1/100): 426 OD × 10^3 and 439 OD × 10^3
optical density at 492 nm (normal sera; normal serum SN 17, 1/100): 104 OD × 10^3 and 74 OD × 10^3
optical density at 492 nm (normal sera; normal serum SN 18, 1/100): 119 OD × 10^3 and 87 OD × 10^3
optical density at 492 nm (normal sera; normal serum SN 19, 1/100): 480 OD × 10^3 and 496 OD × 10^3

K32G: peptide corresponding to the amino acid sequence 12 to 45 of the CORE protein (KRNTNRRPQDVKFPGGGQIVGGVYLLPRRGPTLG)
optical density at 492 nm ([1]; Table 5, serum A8, 1/10,000): 666 OD × 10^3
optical density at 492 nm ([1]; Table 5, serum A 9, 1/1000): 1675 OD × 10^3
optical density at 492 nm ([1]; Table 5, serum A 9, 1/10,000): 229 OD × 10^3
optical density at 492 nm ([1]; Table 5, serum A11, 1/1000): 2108 OD × 10^3
optical density at 492 nm ([1]; Table 5, serum A11, 1/10,000): 343 OD × 10^3
optical density at 492 nm ([1]; Table 5, serum A12, 1/10,000): 598 OD × 10^3
optical density at 492 nm ([1]; Table 5, serum A13, 1/10,000): 1247 OD × 10^3
optical density at 492 nm ([1]; Table 5, serum A14, 1/1000): 998 OD × 10^3
optical density at 492 nm ([1]; Table 5, serum A14, 1/10,000): 103 OD × 10^3
optical density at 492 nm ([1]; Table 5, serum A15, 1/10,000): 715 OD × 10^3
optical density at 492 nm ([1]; Table 5, serum A19, 1/10,000): 594 OD × 10^3
optical density at 492 nm ([1]; Table 5, serum A21, 1/1000): 993 OD × 10^3
optical density at 492 nm ([1]; Table 5, serum A21, 1/10,000): 123 OD × 10^3
optical density at 492 nm ([1]; Table 5, serum A22, 1/1000): 876 OD × 10^3
optical density at 492 nm ([1]; Table 5, serum A22, 1/10,000): 129 OD × 10^3
optical density at 492 nm ([1]; Table 5, serum A23, 1/10,000): 774 OD × 10^3
reactivity towards HCV-positive sera ([1]; in words): little or no difference is observed in reactivity

glutathione S-transferase
reactivity towards HCV-positive sera (HCV-positive sera): none of the sera tested reacts
